Source: US20240148671A1, “METHODS FOR IMPROVING POULTRY HEALTH” (CORNELL UNIVERSITY, priority 2021, published 2024)
Marks after values point to notes of the source that are not given here.

How the values were obtained:
Assay type in all cases: in vivo, Gallus gallus
hemoglobin (Hb) = experiment: Blood hemoglobin (Hb) after intra-amniotic administration
Procedure: (§1) The pure resveratrol and pterostilbene were individually diluted in 18 MΩ H2O. The intra-amniotic administration followed the methodology previously described. On the 17th day of embryonic development, the eggs with viable embryos (n=60) were randomly allocated into 6 groups (n=10) with a similar weight frequency distribution. For the intra-amniotic treatment, 1 mL of solution per egg was injected into the amniotic fluid (via candling) with the aid of a 21-gauge needle. After the procedure, the injection sites were sealed with cellophane tape, and the eggs were distributed into six groups: (1) no injection; (2) 18 MΩ H2O; (3) 5% inulin; (4) 5% resveratrol; (5) 5% pterostilbene; and (6) synergistic: 4.75% resveratrol and 0.25% pterostilbene. […] The eggs were equally distributed in each incubator location to reduce possible allocation bias. Upon hatching (21 days), the hatchlings were euthanized by CO2 exposure, and the blood, liver, heart, pectoral muscle, small intestine and cecum were obtained.
Blood was collected using micro-hematocrit heparin-coated capillary tubes (Fisher Scientific, Waltham, MA, USA). The hemoglobin (Hb) concentration was assessed spectrophotometrically using the QuantiChrom™ Hb Assay (DIHB-250, BioAssay Systems, Hayward, CA, USA) and according to specific instructions.

[1] = Body weight, cecum weight and cecum:body weight ratio; details: intra-amniotic 1 mL/egg on day 17; at hatch (day 21); mean ± SEM, n=8
Procedure: as §1

[2] = Glycogen in pectoral muscle; details: intra-amniotic 1 mL/egg on day 17, at hatch, mean ± SEM, n=8
Procedure: as §1

Liver Ferritin = experiment: Liver ferritin; details: intra-amniotic 1 mL/egg on day 17, at hatch, mean ± SEM, n=5
Procedure: as §1

[3] = tested on: DMT1 (Divalent metal transporter 1); experiment: Gene expression (RT-PCR), DMT1; details: at hatch, b173: compared with the other treatments and the controls, b190: comparator not stated, p<0.05
Procedure: (§2) The pure resveratrol and pterostilbene were individually diluted in 18 MΩ H2O. The intra-amniotic administration followed the methodology previously described. On the 17th day of embryonic development, the eggs with viable embryos (n=60) were randomly allocated into 6 groups (n=10) with a similar weight frequency distribution. For the intra-amniotic treatment, 1 mL of solution per egg was injected into the amniotic fluid (via candling) with the aid of a 21-gauge needle. […]
(§3) The RNA was isolated as described previously (RNeasy Mini Kit, Qiagen Inc., Valencia, CA, USA), and 30 mg of the duodenal tissue or liver tissue (n =8) was used to extract the total RNA. […] Finally, the RNA was eluted in 50 μL of RNase-free water and quantified by absorbance at 260 and 280 nm.
(§4) RT-PCR was conducted as described. […] The cDNA content was assessed by absorbance at 260 and 280 nm, with an extinction coefficient of 33 (single-stranded DNA). Genomic DNA contamination was evaluated via a real-time RT-PCR assay for the reference gene samples [17,18,30]. […]
(§5) The procedures were performed as previously published. […] The optimal MgCl2 concentration achieved, for each reaction, an amplification plot (lowest cycle product, Cp), the uppermost fluorescence intensity and the steepest amplification slope. […]

AP (Aminopeptidase) = experiment: Gene expression (RT-PCR), AP; details: at hatch; b175: relative to the 18 MΩ M2O and 5% inulin control groups; b192: comparator not stated; p<0.05
Procedure: as §2, §3, §4, §5

SI (Sucrose isomaltase) = experiment: Gene expression (RT-PCR), SI; details: at hatch; b175: compared with the no injection and 5% inulin control groups; b192: comparator not stated; p<0.05
Procedure: as §2, §3, §4, §5

[4] = tested on: AT1R (angiotensin II receptor type I); experiment: Gene expression (RT-PCR), AT1R; details: intestinal and heart gene expression (FIG. 2); b176: compared with the no injection control; b192: comparator not stated; b210: between the experimental groups
Procedure: as §2, §3, §4, §5

For `Oc1ccc(C=Cc2cc(O)cc(O)c2)cc1` [5% Resveratrol, Resveratrol], the “Hb (g/dL)” value (hemoglobin (Hb); intra-amniotic 1 mL/egg on day 17, blood at hatch (day 21), mean ± SEM) was 9.71 ± 0.53^a g/dL, the “Hb concentration, comparison between groups” value (hemoglobin (Hb); synergistic vs the controls and other treatment groups (p<0.05), 5% resveratrol and 5% pterostilbene vs the control groups) was “no difference” and the “Body Weight Average (g)” value [1] was 47.1 ± 1.4^a g. For the same compound, the “Cecum Weight Average (g)” value [1] was 0.6 ± 0.0^a g, the “Cecum:Body Weight Ratio” value [1] was 0.013 ± 0.001^a and the “Glycogen (mg/g)” value [2] was 0.019 ± 0.004^a mg/g. For the same compound, the “Liver Ferritin (A.U.)” value (Liver Ferritin) was 0.839 ± 0.393^bc A.U, the “DMT1 relative gene expression” value ([3]; listed as 5% resveratrol) was “lowest” and the “DMT1 relative gene expression” value ([3]; listed as resveratrol) was “downregulated significantly”. The AP relative expression (AP (Aminopeptidase)) was “downregulated”, the SI relative expression (SI (Sucrose isomaltase)) was “down regulated” and the AT1R gene expression [4] was “downregulated”.
